According to ChEMBL document CHEMBL6127049, “Discovery of the selective and nanomolar inhibitor of DPP-4 more potent than sitagliptin by structure-guided rational design” (Eur J Med Chem, 2024):
Activity calls are given as the source filed them. The calls are words filed in the database; no cut-off is given here.

Experiments:
Dipeptidyl peptidase 4 = Dipeptidyl peptidase 4 (Homo sapiens, UniProt P27487); assay: Inhibition of DPP4 (unknown origin) assessed as hydrolysis rate using Gly-pro-p-nitroanilide as substrate measured after 20 mins incubation by fluorometric assay
Chain of Dipeptidyl peptidase 4 (P27487 whole entry): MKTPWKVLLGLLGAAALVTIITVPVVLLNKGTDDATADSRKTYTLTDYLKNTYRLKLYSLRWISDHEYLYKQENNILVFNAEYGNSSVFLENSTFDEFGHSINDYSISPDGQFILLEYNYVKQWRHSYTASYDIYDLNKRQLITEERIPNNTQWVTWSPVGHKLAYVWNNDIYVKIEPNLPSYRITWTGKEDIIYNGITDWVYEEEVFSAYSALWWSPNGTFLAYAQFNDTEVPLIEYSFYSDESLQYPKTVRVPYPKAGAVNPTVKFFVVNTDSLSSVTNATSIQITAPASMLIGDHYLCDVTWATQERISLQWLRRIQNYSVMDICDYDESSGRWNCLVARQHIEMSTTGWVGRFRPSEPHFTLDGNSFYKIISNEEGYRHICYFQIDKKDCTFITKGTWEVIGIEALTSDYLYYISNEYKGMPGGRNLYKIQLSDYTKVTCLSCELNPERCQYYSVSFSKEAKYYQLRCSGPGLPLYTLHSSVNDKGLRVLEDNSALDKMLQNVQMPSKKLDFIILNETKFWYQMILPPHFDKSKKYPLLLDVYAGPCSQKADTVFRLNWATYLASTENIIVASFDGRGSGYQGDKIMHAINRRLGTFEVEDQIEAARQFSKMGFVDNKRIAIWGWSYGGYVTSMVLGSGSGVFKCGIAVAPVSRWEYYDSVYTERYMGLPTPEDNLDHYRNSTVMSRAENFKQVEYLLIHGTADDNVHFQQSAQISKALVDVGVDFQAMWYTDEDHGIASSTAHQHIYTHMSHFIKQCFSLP

[1] = Acute toxicity in Balb/C mouse assessed as morphological changes in eyes at 1250 to 2000 mg/kg, po; type: organism-based; conditions: in vivo, dose 1250-2000 mg/kg
[2] = Acute toxicity in Balb/C mouse assessed as changes in general appearance at 1250 to 2000 mg/kg, po; type: organism-based; conditions: in vivo, dose 1250-2000 mg/kg
Rattus norvegicus [3] = assay: Anti-diabetic activity in normal Wistar rat model assessed as blood glucose level at 10 mg/kg, po followed by treated administered 3 mg/kg orally measured immediately after administration by Oral glucose tolerance test (reference value: 105.12 mg/dL); type: functional
Rattus norvegicus [4] = assay: Anti-diabetic activity in normal Wistar rat model assessed as blood glucose level at 20 mg/kg, po followed by treated administered 3 mg/kg orally measured immediately after administration by Oral glucose tolerance test (reference value: 105.12 mg/dL); type: functional
Dipeptidyl peptidase 9 = Dipeptidyl peptidase 9 (Homo sapiens, UniProt Q86TI2); assay: Inhibition of DPP9 (unknown origin) assessed as hydrolysis rate using Gly-pro-p-nitroanilide as substrate measured after 20 mins incubation by […] assay
Chain of Dipeptidyl peptidase 9 (Q86TI2 whole entry): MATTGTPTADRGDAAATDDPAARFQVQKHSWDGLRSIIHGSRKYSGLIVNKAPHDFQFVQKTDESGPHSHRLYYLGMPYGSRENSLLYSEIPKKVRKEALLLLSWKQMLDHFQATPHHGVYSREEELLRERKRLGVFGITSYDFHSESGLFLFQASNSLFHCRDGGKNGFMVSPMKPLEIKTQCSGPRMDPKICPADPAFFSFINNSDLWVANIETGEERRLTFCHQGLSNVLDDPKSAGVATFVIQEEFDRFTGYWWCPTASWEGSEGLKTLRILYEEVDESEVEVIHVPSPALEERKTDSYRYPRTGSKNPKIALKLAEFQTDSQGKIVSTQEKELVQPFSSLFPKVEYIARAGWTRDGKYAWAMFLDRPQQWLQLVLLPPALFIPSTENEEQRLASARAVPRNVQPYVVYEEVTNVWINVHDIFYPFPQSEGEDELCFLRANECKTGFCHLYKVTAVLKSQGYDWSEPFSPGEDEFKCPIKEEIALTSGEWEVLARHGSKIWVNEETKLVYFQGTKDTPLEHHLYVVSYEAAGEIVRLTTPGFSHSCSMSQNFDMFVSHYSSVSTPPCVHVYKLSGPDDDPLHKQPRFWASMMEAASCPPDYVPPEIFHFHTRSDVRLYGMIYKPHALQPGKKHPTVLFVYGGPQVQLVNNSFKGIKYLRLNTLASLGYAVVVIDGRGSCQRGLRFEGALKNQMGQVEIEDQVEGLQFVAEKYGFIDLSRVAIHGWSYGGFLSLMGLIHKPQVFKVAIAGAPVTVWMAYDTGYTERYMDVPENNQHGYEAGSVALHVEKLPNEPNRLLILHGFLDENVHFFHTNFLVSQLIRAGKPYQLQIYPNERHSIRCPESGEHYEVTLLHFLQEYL

[5] = Acute toxicity in Balb/C mouse assessed as morphological changes in nose at 1250 to 2000 mg/kg, po; type: organism-based; conditions: in vivo, dose 1250-2000 mg/kg
[6] = Acute toxicity in Balb/C mouse assessed as morphological changes in diarrhea at 1250 to 2000 mg/kg, po; type: organism-based; conditions: in vivo, dose 1250-2000 mg/kg
[7] = Acute toxicity in Balb/C mouse assessed as morphological changes in skin at 1250 to 2000 mg/kg, po; type: organism-based; conditions: in vivo, dose 1250-2000 mg/kg
Rattus norvegicus [8] = assay: Antihyperlipidemic effect in STZ-induced type 2 diabetes male Wistar albino rat model assessed as total cholesterol level at 20 mg/kg, po measured after 4 weeks (reference value: 227.04 +/- 4.10 mg/dL); type: functional
Rattus norvegicus [9] = assay: Anti-diabetic activity in normal Wistar rat model assessed as blood glucose level at 20 mg/kg, po followed by treated administered 3 mg/kg orally measured after 90 mins by Oral glucose tolerance test (reference value: 134.11 + /- 4.64 mg/dL); type: functional; conditions: 1.5 h
[10] = Acute toxicity in Balb/C mouse assessed as morphological changes in convulsions at 1250 to 2000 mg/kg, po; type: organism-based; conditions: in vivo, dose 1250-2000 mg/kg
Rattus norvegicus [11] = assay: Antihyperlipidemic effect in STZ-induced type 2 diabetes male Wistar albino rat model assessed as HDL level at 20 mg/kg, po measured after 4 weeks (reference value: 25.54 +/- 2.62 mg/dL); type: functional
[12] = Acute toxicity in Balb/C mouse assessed as morphological changes in tremors at 1250 to 2000 mg/kg, po; type: organism-based; conditions: in vivo, dose 1250-2000 mg/kg
Rattus norvegicus [13] = assay: Anti-diabetic activity in normal Wistar rat model assessed as blood glucose level at 10 mg/kg, po followed by treated administered 3 mg/kg orally measured after 120 mins by Oral glucose tolerance test (reference value: 126.5 + /- 3.90 mg/dL); type: functional; conditions: 2 h
Rattus norvegicus [14] = assay: Anti-diabetic activity in normal Wistar rat model assessed as blood glucose level at 20 mg/kg, po followed by treated administered 3 mg/kg orally measured after 120 mins by Oral glucose tolerance test (reference value: 126.5 + /- 3.90 mg/dL); type: functional; conditions: 2 h
Rattus norvegicus [15] = assay: Anti-diabetic activity in normal Wistar rat model assessed as blood glucose level at 20 mg/kg, po followed by treated administered 3 mg/kg orally measured after 60 mins by Oral glucose tolerance test (reference value: 153.74 + /- 3.94 mg/dL); type: functional; conditions: 1 h
Rattus norvegicus [16] = assay: Reduction of alkaline phosphatase (ALP) level in STZ-induced type 2 diabetes male Wistar albino rat model at 10 mg/kg, po measured after 4 weeks by hepatic function test; type: functional, organism-based
[17] = Acute toxicity in Balb/C mouse assessed as morphological changes in fur at 1250 to 2000 mg/kg, po; type: organism-based; conditions: in vivo, dose 1250-2000 mg/kg
Rattus norvegicus [18] = assay: Anti-diabetic activity in normal Wistar rat model assessed as blood glucose level at 10 mg/kg, po followed by treated administered 3 mg/kg orally measured after 60 mins by Oral glucose tolerance test (reference value: 153.74 + /- 3.94 mg/dL); type: functional; conditions: 1 h
Rattus norvegicus [19] = assay: Reduction of serum glutamate oxaloacetate transaminase (SGOT) level in STZ-induced type 2 diabetes male Wistar albino rat model at 20 mg/kg, po measured after 4 weeks by hepatic function test; type: functional, organism-based
Rattus norvegicus [20] = assay: Anti-diabetic activity in normal Wistar rat model assessed as blood glucose level at 10 mg/kg, po followed by treated administered 3 mg/kg orally measured after 90 mins by Oral glucose tolerance test (reference value: 134.11 + /- 4.64 mg/dL); type: functional; conditions: 1.5 h
Rattus norvegicus [21] = assay: Reduction of serum glutamate pyruvate transaminase (SGPT) level in STZ-induced type 2 diabetes male Wistar albino rat model at 10 mg/kg, po measured after 4 weeks by hepatic function test; type: functional, organism-based
[22] = Acute toxicity in Balb/C mouse assessed as morphological changes in salvation at 1250 to 2000 mg/kg, po; type: organism-based; conditions: in vivo, dose 1250-2000 mg/kg
[23] = Acute toxicity in Balb/C mouse assessed as morphological changes in unusual behavior at 1250 to 2000 mg/kg, po; type: organism-based; conditions: in vivo, dose 1250-2000 mg/kg
Rattus norvegicus [24] = assay: Antihyperlipidemic effect in STZ-induced type 2 diabetes male Wistar albino rat model assessed as LDL level at 10 mg/kg, po measured after 4 weeks (reference value: 184.65 +/- 4.57 mg/dL); type: functional
Rattus norvegicus [25] = assay: Antihyperlipidemic effect in STZ-induced type 2 diabetes male Wistar albino rat model assessed as HDL level at 10 mg/kg, po measured after 4 weeks (reference value: 25.54 +/- 2.62 mg/dL); type: functional
Rattus norvegicus [26] = assay: Reduction of serum glutamate pyruvate transaminase (SGPT) level in STZ-induced type 2 diabetes male Wistar albino rat model at 20 mg/kg, po measured after 4 weeks by hepatic function test; type: functional, organism-based
Rattus norvegicus [27] = assay: Antihyperlipidemic effect in STZ-induced type 2 diabetes male Wistar albino rat model assessed as LDL level at 20 mg/kg, po measured after 4 weeks (reference value: 184.65 +/- 4.57 mg/dL); type: functional
Dipeptidyl peptidase 8 = Dipeptidyl peptidase 8 (Homo sapiens, UniProt Q6V1X1); assay: Inhibition of DPP8 (unknown origin) assessed as hydrolysis rate using Gly-pro-p-nitroanilide as substrate measured after 20 mins incubation by […] assay
Chain of Dipeptidyl peptidase 8 (Q6V1X1 whole entry): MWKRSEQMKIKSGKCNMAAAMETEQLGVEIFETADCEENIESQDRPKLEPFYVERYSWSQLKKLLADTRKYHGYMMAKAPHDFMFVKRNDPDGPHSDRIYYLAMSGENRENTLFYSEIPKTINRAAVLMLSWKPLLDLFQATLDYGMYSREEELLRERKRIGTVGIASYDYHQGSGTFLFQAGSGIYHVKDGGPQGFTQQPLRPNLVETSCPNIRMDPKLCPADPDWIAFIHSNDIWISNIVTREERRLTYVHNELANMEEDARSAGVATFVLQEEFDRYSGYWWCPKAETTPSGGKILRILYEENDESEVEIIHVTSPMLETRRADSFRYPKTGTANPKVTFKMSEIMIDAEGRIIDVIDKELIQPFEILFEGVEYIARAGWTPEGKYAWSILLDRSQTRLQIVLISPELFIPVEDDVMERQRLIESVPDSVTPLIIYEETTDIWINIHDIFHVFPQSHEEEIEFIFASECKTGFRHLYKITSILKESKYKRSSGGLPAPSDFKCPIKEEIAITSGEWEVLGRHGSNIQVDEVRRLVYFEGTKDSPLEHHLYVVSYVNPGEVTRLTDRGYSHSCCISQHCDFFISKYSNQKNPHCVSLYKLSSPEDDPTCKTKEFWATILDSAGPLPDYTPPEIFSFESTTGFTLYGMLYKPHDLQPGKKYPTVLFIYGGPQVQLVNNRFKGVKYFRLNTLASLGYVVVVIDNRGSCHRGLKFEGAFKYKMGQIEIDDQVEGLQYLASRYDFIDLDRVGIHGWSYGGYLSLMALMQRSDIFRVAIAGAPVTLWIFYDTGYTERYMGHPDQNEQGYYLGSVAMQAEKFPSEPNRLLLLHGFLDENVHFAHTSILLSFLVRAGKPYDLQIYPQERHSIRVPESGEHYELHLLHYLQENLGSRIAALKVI

Rattus norvegicus [28] = assay: Reduction of insulin level in STZ-induced type 2 diabetes male Wistar albino rat model at 20 mg/kg, po measured after 4 weeks by hepatic function test; type: functional, organism-based
Rattus norvegicus [29] = assay: Antihyperlipidemic effect in STZ-induced type 2 diabetes male Wistar albino rat model assessed as triglyceride level at 20 mg/kg, po measured after 4 weeks (reference value: 190.23 +/- 4.37 mg/dL); type: functional
Rattus norvegicus [30] = assay: Anti-diabetic activity in normal Wistar rat model assessed as blood glucose level at 10 mg/kg, po followed by treated administered 3 mg/kg orally measured after 30 mins by Oral glucose tolerance test (reference value: […] 176.14 + /- 4.04 mg/dL); type: functional; conditions: 0.5 h
Rattus norvegicus [31] = assay: Reduction of serum glutamate oxaloacetate transaminase (SGOT) level in STZ-induced type 2 diabetes male Wistar albino rat model at 10 mg/kg, po measured after 4 weeks by hepatic function test; type: functional, organism-based
Rattus norvegicus [32] = assay: Antihyperlipidemic effect in STZ-induced type 2 diabetes male Wistar albino rat model assessed as total cholesterol level at 10 mg/kg, po measured after 4 weeks (reference value: 227.04 +/- 4.10 mg/dL); type: functional
Rattus norvegicus [33] = assay: Antihyperlipidemic effect in STZ-induced type 2 diabetes male Wistar albino rat model assessed as triglyceride level at 10 mg/kg, po measured after 4 weeks (reference value: 190.23 +/- 4.37 mg/dL); type: functional
Rattus norvegicus [34] = assay: Reduction of alkaline phosphatase (ALP) level in STZ-induced type 2 diabetes male Wistar albino rat model at 20 mg/kg, po measured after 4 weeks by hepatic function test; type: functional, organism-based
Rattus norvegicus [35] = assay: Anti-diabetic activity in normal Wistar rat model assessed as blood glucose level at 20 mg/kg, po followed by treated administered 3 mg/kg orally measured after 30 mins by Oral glucose tolerance test (reference value: 176.14 + /- 4.04 mg/dL); type: functional; conditions: 0.5 h

SMILES: Cc1nc(N2CCCC2C#N)nc(C)c1CC(=O)O (stereo unspecified)
- IC50 (Dipeptidyl peptidase 4): 1230 nM

SMILES: CC1=C([N+](=O)[O-])C(c2ccc(F)c(F)c2)N=C(N)N1C(=O)CN1CCC[C@H]1C(=O)O (stereo partly specified)
- IC50 (Dipeptidyl peptidase 4): 2540 nM

SMILES: CC1=C(CC(=O)N2CCn3c(nnc3C(F)(F)F)C2)C(C)NC(=O)N1 (stereo unspecified)
- IC50 (Dipeptidyl peptidase 4): 2550 nM

SMILES: Cc1nc(N2CCCC(N)C2)nc(C)c1CC(=O)O (stereo unspecified)
- IC50 (Dipeptidyl peptidase 4): 1400 nM

SMILES: CC1=C(C(=O)O)C(c2ccc(F)c(F)c2)N=C(N)N1C(=O)CN1CCCC1C#N (stereo unspecified)
- IC50 (Dipeptidyl peptidase 4): 390 nM

SMILES: CC1=C(CC(=O)N2Cc3cn(S(C)(=O)=O)nc3C2)C(C)NC(=O)N1 (stereo unspecified)
- IC50 (Dipeptidyl peptidase 4): 942 nM

SMILES: CC1=C(C(=O)O)C(c2ccc(F)c(F)c2)N=C(N)N1C(=O)CN1CCC[C@H]1C(=O)O (stereo partly specified)
- IC50 (Dipeptidyl peptidase 4): 1060 nM

SMILES: CC1=C(CC(=O)N2CCn3c(nnc3C(F)(F)F)C2)C(c2ccc(F)c(F)c2)NC(=O)N1 (stereo unspecified)
- IC50 (Dipeptidyl peptidase 4): 1060 nM

SMILES: CC1=C([N+](=O)[O-])C(c2ccc(F)c(F)c2)N=C(N)N1C(=O)CN1CCn2c(nnc2C(F)(F)F)C1 (stereo unspecified)
- Activity [1]: Non-Toxic
- Activity [2]: Non-Toxic
- Activity (Rattus norvegicus [3]): 104.01 mg/dL
- Activity (Rattus norvegicus [4]): 103.88 mg/dL
- IC50 (Dipeptidyl peptidase 9): 1970 nM
- Activity [5]: Non-Toxic
- Activity [6]: Non-Toxic
- Activity [7]: Non-Toxic
- IC50 (Dipeptidyl peptidase 4): 85 nM
- Activity (Rattus norvegicus [8]): 137.56 mg/dL
- Activity (Rattus norvegicus [9]): 107.56 mg/dL
- Activity [10]: Non-Toxic
- Activity (Rattus norvegicus [11]): 54.23 mg/dL
- Activity [12]: Non-Toxic
- Activity (Rattus norvegicus [13]): 113.91 mg/dL
- Activity (Rattus norvegicus [14]): 111.1 mg/dL
- Activity (Rattus norvegicus [15]): 115.67 mg/dL
- Activity (Rattus norvegicus [16]): Active
- Activity [17]: Non-Toxic
- Activity (Rattus norvegicus [18]): 117.43 mg/dL
- Activity (Rattus norvegicus [19]): Active
- Activity (Rattus norvegicus [20]): 109.45 mg/dL
- Activity (Rattus norvegicus [21]): Active
- Activity [22]: Non-Toxic
- Activity [23]: Non-Toxic
- Activity (Rattus norvegicus [24]): 134.87 mg/dL
- Activity (Rattus norvegicus [25]): 46.34 mg/dL
- Activity (Rattus norvegicus [26]): Active
- Activity (Rattus norvegicus [27]): 115.89 mg/dL
- IC50 (Dipeptidyl peptidase 8): 1340 nM
- Activity (Rattus norvegicus [28]): Active
- Activity (Rattus norvegicus [29]): 119.45 mg/dL
- Activity (Rattus norvegicus [30]): 120.87 mg/dL
- Activity (Rattus norvegicus [31]): Active
- Activity (Rattus norvegicus [32]): 154.87 mg/dL
- Activity (Rattus norvegicus [33]): 149.76 mg/dL
- Activity (Rattus norvegicus [34]): Active
- Activity (Rattus norvegicus [35]): 117.46 mg/dL

SMILES: CC1=C(C(=O)O)C(c2ccc(F)c(F)c2)N=C(N)N1C(=O)CN1CCCC(N)C1 (stereo unspecified)
- Activity (Rattus norvegicus [3]): 103.07 mg/dL
- Activity (Rattus norvegicus [4]): 101.44 mg/dL
- IC50 (Dipeptidyl peptidase 4): 90 nM
- Activity (Rattus norvegicus [8]): 134.45 mg/dL
- Activity (Rattus norvegicus [9]): 114.84 mg/dL
- Activity (Rattus norvegicus [11]): 56.98 mg/dL
- Activity (Rattus norvegicus [13]): 106.76 mg/dL
- Activity (Rattus norvegicus [14]): 110.72 mg/dL
- Activity (Rattus norvegicus [15]): 118.96 mg/dL
- Activity (Rattus norvegicus [16]): Active
- Activity (Rattus norvegicus [18]): 108.35 mg/dL
- Activity (Rattus norvegicus [19]): Active
- Activity (Rattus norvegicus [20]): 107.57 mg/dL
- Activity (Rattus norvegicus [21]): Active
- Activity (Rattus norvegicus [24]): 123.32 mg/dL
- Activity (Rattus norvegicus [25]): 48.23 mg/dL
- Activity (Rattus norvegicus [26]): Active
- Activity (Rattus norvegicus [27]): 107.12 mg/dL
- Activity (Rattus norvegicus [29]): 114.65 mg/dL
- Activity (Rattus norvegicus [30]): 118.62 mg/dL
- Activity (Rattus norvegicus [31]): Active
- Activity (Rattus norvegicus [32]): 148.09 mg/dL
- Activity (Rattus norvegicus [33]): 143.78 mg/dL
- Activity (Rattus norvegicus [34]): Active
- Activity (Rattus norvegicus [35]): 115.15 mg/dL
